Assay [1] deals with T1, BACE1 (Homo sapiens, UniProt P56817). Nature of the assay: In Vitro Enzymatic BACE FRET (Fluorescence Resonance Energy Transfer) Assay. The class given is biochemical. The conditions noted are these: read-out: BACE1 FRET assay; for IC50: Table III, IC50's in uM ranges. An outline of the steps: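 Fluorescence read-out after Tris addition raises pH to neutrality and ends the reaction. Before that, a peptide substrate carrying fluorophore and quencher across the BACE cleavage site (50 nM) is incubated with enzyme for one hour at pH 4.2 in acetate containing 10% DMSO and sub-micellar genapol.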

Assay [2] has as its target T1, BACE1. Nature of the assay: In Vitro BACE Cell-based Assay (HEK cell assay): Aβ40 in conditioned medium of cells stably expressing Amyloid Precursor Protein, sandwich ELISA. The conditions noted are these: read-out: HEK cell assay; for IC50: Table III, IC50's in uM ranges. An outline of the steps:
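First, APP-stable cells grow 24 h at 37° C., 5% CO2. Next, test compounds are added for 24 h (10 doses, 0.1% DMSO). Finally, medium Aβ40 is determined by pAb40/6E10 sandwich ELISA with Europium TRF, and IC50 is calculated.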

The mark [3] stands for this setting: in vitro BACE FRET enzyme assay, IC50 class symbols.
Setting [4] is: HEK cell-based assay, Aβ40 in conditioned medium, IC50 class symbols.

Molecules are shown by their SMILES. pIC50: −log10 of the molar value. Some results are limits rather than exact numbers.

T1 sequence (P56817 46-501, species assumed): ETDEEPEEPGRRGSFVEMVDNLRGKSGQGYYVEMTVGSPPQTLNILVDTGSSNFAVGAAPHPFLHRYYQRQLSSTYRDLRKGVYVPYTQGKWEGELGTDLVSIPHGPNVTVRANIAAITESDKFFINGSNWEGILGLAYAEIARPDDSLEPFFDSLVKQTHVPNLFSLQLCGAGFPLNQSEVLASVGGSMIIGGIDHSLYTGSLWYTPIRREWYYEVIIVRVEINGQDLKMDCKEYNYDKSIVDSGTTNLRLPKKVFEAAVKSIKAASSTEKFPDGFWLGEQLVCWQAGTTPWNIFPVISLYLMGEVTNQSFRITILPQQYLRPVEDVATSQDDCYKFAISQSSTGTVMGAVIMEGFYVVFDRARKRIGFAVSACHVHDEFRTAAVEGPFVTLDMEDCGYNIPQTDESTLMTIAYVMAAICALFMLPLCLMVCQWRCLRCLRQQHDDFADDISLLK

For `COCC(=O)Nc1ccc2c(c1)[C@@]1(COC(N)=N1)c1cc(-c3ccccc3)ccc1O2` [compound 533], the pIC50 was above 7.00 in assay [1] (Table IV, class symbols) and above 7.00 in assay [2] (Table IV, class symbols).

As to `NC1=N[C@@]2(CO1)c1cc(-c3ccccc3)ccc1Oc1ncc(C3=CCOCC3)cc12` [compound 580], the pIC50 in assay [1] (Table IV, class symbols) is above 7.00; in assay [2] (Table IV, class symbols), above 7.00.

On to `CC(C)(C)OC(=O)n1cccc1-c1ccc2c(c1)[C@@]1(COC(N)=N1)c1cccc(F)c1O2` [compound 510], for which the pIC50 in assay [1] and in assay [2] (HEK cells) was 5.30 to 6.00 in each case.

Regarding `CCCOc1cc2c(cc1F)Oc1ccc(-c3ccc(F)nc3)cc1[C@]21COC(N)=N1` [compound 921], the pIC50 in assay [1] (Table IV, class symbols) was 6.00 to 7.00; in assay [2] (Table IV, class symbols), 5.30 to 6.00.

As to `COc1ccc2c(c1)C1(COC(N)=N1)c1cc(-c3cccnc3F)ccc1O2` (stereo not shown) [Example 16, 2′-(2-fluoro-3-pyridinyl)-7′-methoxyspiro[1,3-oxazole-4,9′-xanthen]-2-amine], the pIC50 was 5.30 to 6.00 in assay [1] (Table 1) and 5.30 to 6.00 in assay [2] (Table 1, Aβ40, 24 h incubation).

Take `NC1=N[C@@]2(CO1)c1cc(Br)ccc1Oc1ccc(C#CC3(O)COC3)cc12` [compound 682]: the pIC50 in assay [1] was 5.30 to 6.00; in assay [2], below 5.30.

With `COc1ccc2c(c1)[C@@]1(COC(N)=N1)c1cc(NC(=O)c3ccc(Cl)cn3)ccc1O2` [Example 55, N-((4R)-2-amino-7′-methoxyspiro[1,3-oxazole-4,9′-xanthen]-2′-yl)-5-chloro-2-pyridinecarboxamide], the pIC50 is above 7.00 in assay [1] (Table II) and 6.00 to 7.00 in assay [2] (Table II, Aβ40, 24 h incubation).

Consider `NC1=N[C@@]2(CO1)c1cc(-c3cccnc3N3CCOCC3)ccc1Oc1ccc(N3CCOCC3)cc12` [compound 391], for which the pIC50 was 6.00 to 7.00 in assay [1] (setting [3]) and 5.30 to 6.00 in assay [2] (setting [4]).

As for `COc1ccc2c(c1)[C@]1(COC(N)=N1)c1cc(-c3cncnc3)cc(F)c1O2` [152a], the results for the IC50 in assay [1] and in assay [2] were 0.1 to 1 µM and 1 to 5 µM, respectively.

Take `CC(C)(C#N)COc1cc2c(cc1F)Oc1ccc(-c3cccnc3)cc1[C@@]21COC(N)=N1` [compound 547]: the pIC50 in assay [1] (Table IV, class symbols) was above 7.00; in assay [2] (Table IV, class symbols), above 7.00.

For the compound `NC1=N[C@]2(CO1)c1ccccc1Oc1ccc(-c3c(F)ccnc3F)cc12` [compound 599], the pIC50 in assay [1] (Table IV, class symbols) was 6.00 to 7.00; in assay [2] (Table IV, class symbols), 5.30 to 6.00.

For the compound `NC1=N[C@@]2(CO1)c1cc(-c3cccnc3)ccc1Oc1cnc(C3=CCCCO3)cc12` [compound 729], the pIC50 in assay [1] and in assay [2] was above 7.00 throughout.

Regarding `CC(C)C[C@@H]1CN(c2ccc3c(c2)[C@]2(COC(N)=N2)c2cc(-c4cccnc4)ccc2O3)CCO1` [compound 360], the pIC50 in assay [1] (setting [3]) and in assay [2] (setting [4]) was 6.00 to 7.00 in each case.

As for `CC(C)(C)COc1ccc2c(c1)[C@]1(COC(N)=N1)c1cc(C3=CCOCC3)ccc1O2` [compound 755], the pIC50 in assay [1] is 6.00 to 7.00; in assay [2] it was 5.30 to 6.00.

Turning to `NC1=N[C@]2(CO1)c1ccccc1Oc1ncc(-c3cncnc3)cc12` [compound 661], the pIC50 was 6.00 to 7.00 in assay [1] (Table IV, class symbols) and 6.00 to 7.00 in assay [2] (Table IV, class symbols).

In the case of `CC(C)(C)COc1ccc2c(c1)[C@]1(COC(N)=N1)c1cc(C3CC3)ccc1O2` [compound 759], the pIC50 in assay [1] was 6.00 to 7.00; in assay [2] it was 5.30 to 6.00.

For the compound `CC(C)(C)COc1ccc2c(c1)[C@]1(COC(N)=N1)c1cc(C3CCCCC3)ccc1O2` [compound 802], the pIC50 in assay [1] (Table IV, class symbols) was above 7.00; in assay [2] (Table IV, class symbols) it was 6.00 to 7.00.

Turning to `CC(C)(C)COc1cnc2c(c1)[C@]1(COC(N)=N1)c1cc(-c3ccccc3)ccc1O2` [compound 469], the pIC50 in assay [1] is above 7.00; in assay [2] (HEK cells) it was 6.00 to 7.00.

Consider `N#CCOc1ccc2c(c1)[C@]1(COC(N)=N1)c1cc(-c3cccnc3)ccc1O2` [compound 981], for which the pIC50 in assay [1] is 6.00 to 7.00; in assay [2], 5.30 to 6.00.

As for `Cc1ccc(-c2ccc3c(c2)[C@]2(COC(N)=N2)c2cc(-c4cncnc4)ccc2O3)o1` [compound 880], the pIC50 is above 7.00 in assay [1] (Table IV, class symbols) and above 7.00 in assay [2] (Table IV, class symbols).

In the case of `COc1ccc(-c2ccc3c(c2)[C@]2(COC(N)=N2)c2cc(-c4cncnc4)ccc2O3)cc1` [compound 892], the pIC50 was above 7.00 in assay [1] (Table IV, class symbols) and above 7.00 in assay [2] (Table IV, class symbols).

With `COc1ccc2c(c1)[C@@]1(COC(N)=N1)c1cc(C(=O)N3CCCC3)ccc1O2` [Example 127, (R)-(2-amino-2′-methoxy-5H-spiro[oxazole-4,9′-xanthene]-7′-yl)(pyrrolidin-1-yl)methanone], the IC50 is above 5 µM in assay [1] and 1 to 5 µM in assay [2].

Regarding `NC1=N[C@]2(CO1)c1cc(C#CC3(O)COC3)ccc1Oc1ccc(-c3cccnc3)cc12` [compound 685], the pIC50 in assay [1] and in assay [2] was above 7.00 each time.

As for `CCC1(CC)CN(c2ccc3c(c2)[C@]2(COC(N)=N2)c2cc(-c4cncnc4)ccc2O3)CCO1` [compound 467], the pIC50 was above 7.00 in assay [1] and 6.00 to 7.00 in assay [2] (HEK cells).

As to `CC(C)(F)COc1cnc2c(c1)[C@]1(COC(N)=N1)c1cc(-c3cccc(C#N)c3)ccc1O2` [compound 357], the pIC50 in assay [1] (setting [3]) and in assay [2] (setting [4]) was above 7.00 each time.

Regarding `CC(C)(C)COc1cnc2c(c1)[C@]1(COC(N)=N1)c1cc(-c3cccc(C#N)c3)ccc1O2` [compound 358], the pIC50 in assay [1] (setting [3]) and in assay [2] (setting [4]) was above 7.00 throughout.

Consider `NC1=N[C@]2(CO1)c1cc(-c3cccnc3)ccc1Oc1ccc(-c3cncnc3)cc12` [Example 124, (R)-2′-(pyridin-3-yl)-7′-(pyrimidin-5-yl)-5H-spiro[oxazole-4,9′-xanthen]-2-amine], for which the IC50 in assay [1] and in assay [2] was below 0.1 µM in each case.

As to `CC1(COc2ccc3c(c2)[C@@]2(COC(N)=N2)c2cc(-c4cccc(Cl)c4)cnc2O3)COC1` [compound 772], the pIC50 in assay [1] is above 7.00; in assay [2], 6.00 to 7.00.

Take `CCc1cc2c3c(ccc2o1)Oc1ncc(-c2cncnc2)cc1[C@]31COC(N)=N1` [compound 769]: the pIC50 in assay [1] was 6.00 to 7.00; in assay [2], 5.30 to 6.00.

`CC(C)(O)C#Cc1cnc2c(c1)[C@]1(COC(N)=N1)c1cc(-c3ccc(F)nc3)ccc1O2` [compound 794]: the pIC50 was above 7.00 in assay [1] (Table IV, class symbols) and above 7.00 in assay [2] (Table IV, class symbols).

Regarding `N#Cc1ccccc1Oc1ccc2c(c1)[C@]1(COC(N)=N1)c1cc(-c3cccnc3)ccc1O2` [compound 986], the pIC50 in assay [1] is 6.00 to 7.00; in assay [2], 5.30 to 6.00.

Take `NC1=N[C@]2(CO1)c1ccncc1Oc1ccc(-c3cccnc3)cc12` [compound 675]: the pIC50 in assay [1] was 6.00 to 7.00; in assay [2], 5.30 to 6.00.

For `NC1=N[C@@]2(CO1)c1cc(-c3cccnc3)ccc1Oc1ccc(-c3cncs3)cc12` [compound 660], the pIC50 in assay [1] (Table IV, class symbols) was above 7.00; in assay [2] (Table IV, class symbols) it was above 7.00.

With `NC1=N[C@@]2(CO1)c1cc(-c3ccc4nccn4c3)ccc1Oc1ncccc12` [compound 572], the pIC50 is below 5.30 in assay [1] (Table IV, class symbols) and 5.30 to 6.00 in assay [2] (Table IV, class symbols).

With `NC1=N[C@@]2(CO1)c1cc(-c3cncnc3)ccc1Oc1cnc(Cl)cc12` [compound 500], the pIC50 is 6.00 to 7.00 in assay [1] and 5.30 to 6.00 in assay [2] (HEK cells).

On to `CC(C)(C)C#Cc1cnc2c(c1)[C@]1(COC(N)=N1)c1cc(-c3ccnnc3)ccc1O2` [compound 653], for which the pIC50 was above 7.00 in assay [1] (Table IV, class symbols) and 6.00 to 7.00 in assay [2] (Table IV, class symbols).

On to `NC1=N[C@@]2(CO1)c1cc(-c3cccnc3F)ccc1Oc1cnc(-c3cccnc3F)cc12` [compound 550], for which the pIC50 in assay [1] (Table IV, class symbols) is above 7.00; in assay [2] (Table IV, class symbols), 6.00 to 7.00.

For the compound `NC1=N[C@@]2(CO1)c1cc(-c3cccnc3F)ccc1Oc1ccc(Cl)nc12` [compound 392], the pIC50 in assay [1] (setting [3]) and in assay [2] (setting [4]) was 6.00 to 7.00 throughout.

In the case of `NC1=NC2(CO1)c1cnc(Cl)cc1Oc1ccc(-c3cncnc3)cc12` (stereo not shown) [compound 852], the pIC50 in assay [1] (Table IV, class symbols) was 5.30 to 6.00; in assay [2] (Table IV, class symbols), below 5.30.

As to `Cc1cc(-c2ccc3c(n2)[C@]2(COC(N)=N2)c2cc(-c4cccnc4F)ccc2O3)ccn1` [compound 401], the values for the pIC50 in assay [1] (setting [3]) and in assay [2] (setting [4]) were 6.00 to 7.00 and above 7.00, respectively.

On to `CC(C)(C)COc1ccc2c(c1)[C@]1(CSC(N)=N1)c1cc(-c3cncnc3)ccc1O2` [compound 720], for which the pIC50 in assay [1] and in assay [2] was above 7.00 in each case.

With `CC(C)(C)OCCOc1ccc2c(c1)[C@]1(COC(N)=N1)c1cc(-c3cncnc3)ccc1O2` [compound 158], the IC50 in assay [1] and in assay [2] was below 0.1 µM throughout.

Take `COC(=O)c1ccc(-c2ccc3c(c2)[C@]2(COC(N)=N2)c2cc(-c4cccnc4)ccc2O3)s1` [compound 722]: the pIC50 in assay [1] and in assay [2] was above 7.00 throughout.

As to `NC1=N[C@@]2(CO1)c1cc(-c3cccnc3F)ccc1Oc1cnc(Cl)cc12` [compound 551], the pIC50 in assay [1] (Table IV, class symbols) was 6.00 to 7.00; in assay [2] (Table IV, class symbols), 6.00 to 7.00.

Consider `CC(=O)Cc1ccc2c(c1)[C@]1(COC(N)=N1)c1cc(-c3cccnc3)ccc1O2` [compound 658], for which the pIC50 in assay [1] (Table IV, class symbols) was 6.00 to 7.00; in assay [2] (Table IV, class symbols) it was 6.00 to 7.00.

As to `CC(C)C(O)COc1ccc2c(c1)[C@]1(COC(N)=N1)c1cc(-c3cccnc3)ccc1O2` (stereo partly shown) [compound 866], the pIC50 in assay [1] (Table IV, class symbols) was above 7.00; in assay [2] (Table IV, class symbols), 6.00 to 7.00.

For `CC(=O)c1ccccc1-c1ccc2c(c1)[C@@]1(COC(N)=N1)c1cc(OCC(C)(C)C)ccc1O2` [compound 974], the pIC50 in assay [1] is 6.00 to 7.00; in assay [2], 5.30 to 6.00.

The values above are taken from patent publication US8426447B2, “Spiro-tricyclic ring compounds as beta-secretase modulators and methods of use” (Amgen Inc., priority 2008, dated 2013).
